Measurements from patent US10077436B2, “Beta-glucosidase enzymes for increased biomass saccharification” (Edeniq, Inc., priority 2013, dated 2018).

Molecular target: S-BG (Novozymes SP188 from Sigma), commercial beta-glucosidase
Assay: BG kinetics, cellobiose hydrolysis assay (HPLC) with glucose as competitive inhibitor, S-BG
Assay type: biochemical
Conditions: pH 4.8, 50° C.
From the text: The kinetic properties of beta glucosidase are important for cellulosic hydrolysis, since in commercial situations a wide range of substrate concentrations and different product inhibition conditions will be encountered. In this example, a Michaelis-Menten kinetics model was used to describe BG kinetics. To determine these kinetic properties, BG activity assays using standard substrates pNPG and cellobiose were employed. yEdQ745-BG (wild type) and yEdQ885-BG (improved), were compared with two commercial BGs, A-BG (Accellerase®) BG from Dupont) and S-BG (Novozymes SP188 from Sigma).
BG activity assay using cellobiose is the other standard assay to measure BG or cellobiase activity, which utilizes hydrolysis of cellobiose by cellobiase into two molecules of glucose, the last step of enzymatic hydrolysis of cellulose. One cellobiase unit (commonly termed as CBU) is defined as the amount of enzyme that converts […] of cellobiose or produces 2 μmol of glucose per min. Briefly, to determine BG activity, 25 μL of diluted enzyme in 50 mM citrate buffer (pH 4.8) equilibrated to 50° C. was mixed with 25 μL cellobiose (or cellobiose/glucose mixture for the kinetic study) to start the reaction. The mixture was incubated at 50° C. for 10 min, and the reaction was terminated by incubating the mixture at 99° C. for 5 min. Different methods are available to measure the glucose produced in the assays. For the kinetic study, HPLC was used.
To determine kinetic properties using cellobiose substrate, duplicate assays with cellobiose concentrations ranging from 0.47 to 15 mM and glucose concentrations of 0, 0.9, 4.5, 6.75, and 8.1 (for A-BG) or 9 (for all the other three BGs) g/L were performed. As for pNPG substrate, the range of cellobiose substrate concentration was chosen to show detectable activity at the lowest substrate concentration and saturation stage at high substrate concentration. However, in contrast to the pNPG substrate, when there was still some activity left at glucose concentration up to 36 g/L, most of the BG activity was lost at an inhibitor level of 9 g/L when cellobiose substrate was used. […] It should also be noted that colorimetric glucose assay cannot provide activity results for inhibitory glucose levels above 0.9 g/L after several trials. Therefore, HPLC measurements were used for kinetic studies using cellobiose substrate. It should be pointed out that the HPLC method may not be sensitive enough either to capture BG activity under more severe glucose inhibition conditions than 9 g/L of glucose. Moreover, theoretically there are two ways to measure BG activity by HPLC when cellobiose is used as the substrate: tracking consumption of cellobiose or tracking production of glucose. However, as shown by the example of one set of results from S-BG in Table 3, tracking glucose is problematic due to measurement sensitivity. In Table 3, A % is defined as follows and is an indicator of measurement sensitivity, since the difference of substrate or product concentrations before and after reaction was used to determine BG activity. Δ%=(start conc. of cellobiose−end conc. of cellobiose)/start conc. of cellobiose×100% (3) Δ%=(end conc. of glucose−start conc. of glucose)/start conc. of glucose×100% (4)
With increasing inhibitor (glucose) level, Δ% is decreasing. For the case of tracking glucose, Δ% was too small to be reliable when 4.5 g/L of glucose was added at the beginning. […] Thus, the approach of tracking cellobiose was chosen due to its higher detection sensitivity. In the substrate range used to determine kinetic parameters (0.47 to 30 mM for A-BG and 0.47 to 15 mM for the other three BGs), the detection sensitivity is reasonable.
A similar simultaneous nonlinear regression method based on the competitive inhibition equation expressed in Equation (1) was used to determine kinetic parameters of BG towards cellobiose. […]

OC[C@H]1OC(O)[C@H](O)[C@@H](O)[C@@H]1O (some centres unmarked) [glucose]
Ki (cellobiose substrate, competitive inhibition): 3.13 ± 0.76 mM | Km/Ki (inhibitor influence, Km for cellobiose / Ki for glucose): 0.51
